Test results as given in publication PMC11032326, “A practical synthesis of nitrone-derived C5a-functionalized isofagomines as protein stabilizers to treat Gaucher disease” (Communications Chemistry, 2024).
Blank lines part the entries; values can stand above or below the molecule they belong to.

How the values were obtained:
[1] = tested on: β-glucosidase activity in p.Asn370Ser/p.Leu29Alafs*18 Gaucher fibroblasts (GM00372); assay: Intact cell β-glucosidase activity study (chaperone activity) in Gaucher fibroblasts; type: cell-based, human; settings: compared to untreated cells (=1)
Description: (§1) GM00372 cells were seeded into 96-well culture plates. […] The final concentration of DMSO was <0.5% which had no cytotoxicity or glucosidase inhibition. The cells were incubated for 5 days and the medium for DMSO-treated cells or compound-treated cells was renewed every 3 days. The enzyme activity assay was performed after removing the medium supplemented with compounds. Compounds were evaluated at all concentrations in triplicate. The monolayers were washed with Dulbecco’s PBS solution (Gibco pH 7.4). PBS (16 μL) and acetate buffer (0.2 M, 16 μL, pH 4.0) were added to each well. The reaction was started by the addition of 4-methylumbelliferyl β-D-glucoside (4 mM, 25 μL, Sigma) to each well, followed by incubation at 37 °C for 2 h. The reaction was stopped by lysing the cells with glycine buffer (0.2 M, 200 μL, pH 10.8). The fluorescence was also measured by the release of 4-methylumbelliferone with an excitation wavelength of 355 nm and an emission wavelength of 460 nm (SpectraMax M5, Molecular Devices). The fluorescence of untreated cells was compared with those treated with compounds. Among the resynthesized compounds, compound 16 was further subjected to the same experiments described above thoroughly at the concentration of 0–500 nM. Likewise, 4-methylumbelliferyl α-D-glucoside (4 mM, 25 μL, Sigma) was used to evaluate the cellular α-glucosidase activity in GM00372 cells treated with or without compound 16 (0–500 nM).

rh-GCase [2] = molecular target: T1, rh-GCase (Homo sapiens, UniProt P04062); assay: rh-GCase inhibition study (in-situ screening and IC50 of resynthesized compounds); type: biochemical; settings: for IC50: resynthesized compounds, read-out: IC50 against rh-GCase
T1 sequence (P04062 40-536): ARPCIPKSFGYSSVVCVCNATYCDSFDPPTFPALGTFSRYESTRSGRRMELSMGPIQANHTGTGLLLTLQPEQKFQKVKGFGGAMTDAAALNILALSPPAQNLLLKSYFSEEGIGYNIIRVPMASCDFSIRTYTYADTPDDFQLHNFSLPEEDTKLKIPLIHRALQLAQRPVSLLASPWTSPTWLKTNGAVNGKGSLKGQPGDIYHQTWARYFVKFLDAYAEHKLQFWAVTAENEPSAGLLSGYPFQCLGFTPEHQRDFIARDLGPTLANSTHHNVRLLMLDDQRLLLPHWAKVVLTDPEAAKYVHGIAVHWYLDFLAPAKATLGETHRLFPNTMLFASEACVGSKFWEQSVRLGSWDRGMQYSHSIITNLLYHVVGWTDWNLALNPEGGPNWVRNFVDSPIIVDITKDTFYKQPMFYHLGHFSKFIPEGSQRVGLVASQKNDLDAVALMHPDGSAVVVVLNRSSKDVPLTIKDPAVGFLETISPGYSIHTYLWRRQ

rh-GCase [3] = molecular target: T1, rh-GCase; assay: Thermal stability shift assay (fluorescence-based thermal denaturation); type: binding; settings: compared to Tm of rh-GCase without small molecule; for In-vitro rh-GCase stabilization ΔTm: 100 µM, pH 7.0; for ΔTm at 100 µM: pH 7, 100 µM, read-out: In-vitro rh-GCase stabilization ΔTm
Description: The stability of rh-GCase was assessed using a modified fluorescence thermal stability assay on a Rotor-Gene system in a neutral pH buffer (phosphate buffer, pH 7.0). […] A thermal gradient was applied to the plate at a rate of 1 °C/minute, during which time the fluorescence of SYPRO Orange was continuously monitored. The fluorescence intensity at each temperature was normalized to the maximum fluorescence after complete thermal denaturation.

[4] = tested on: Gaucher p.Asn370Ser fibroblasts (GM00372); assay: rh-GCase activity in Gaucher patient fibroblasts (co-administration), GM00372; type: cell-based, human; settings: rh-GCase 0.17 μM, 16 at 1 μM, 24 h
Description: (§2) Gaucher patient fibroblasts (GM00372 and GM00877) (2 × 10^4 cells) were seeded in 48-well culture plates and incubated overnight. […] After 24 h, the medium was refreshed without rh-GCase and SMPSs, then the cells were incubated for another 24 h. Cells were harvested by trypsinization and the cell pellets were washed twice with PBS and lysed with lysis buffer containing 0.1% Triton X-100, 50 mM Tris-HCl, and 150 mM NaCl. GCase activity assay was performed by mixing lysate (10 μl) and substrate (90 μL of 4 mM 4-methylumbelliferyl β-D-glucopyranoside) in 0.1 M NaOAc and incubating at 37 °C for 1 h. Reactions were terminated by adding 0.2 N glycine-NaOH, pH 10.7. The fluorescence was detected at excitation/emission wavelengths 355/460 nm.

[5] = tested on: p.Leu444Pro Gaucher fibroblasts (GM00877); assay: rh-GCase activity in Gaucher patient fibroblasts (co-administration), GM00877; type: cell-based, human; settings: rh-GCase 0.17 μM, 16 at 1 μM, 24 h
Description: as §2

[6] = tested on: cellular α-glucosidase activity in GM00372 cells; assay: Intact cell α-glucosidase activity study in Gaucher fibroblasts; type: cell-based, human; settings: 0–500 nM
Description: as §1, with “Likewise, 4-methylumbelliferyl α-D-glucoside (4 mM, 25 μL, Sigma) was used to evaluate the cellular α-glucosidase activity in GM00372 cells treated with or without compound 16 (0–500 nM).” left out

[7] = Fluorescence-based thermal shift assay of pegylated rh-GCases; type: physicochemical; settings: rh-GCase modified by MeO-PEG-NHS (Mw 5000 Da), molar ratio reagent to enzyme
Source text: Supplementary Figure 1. Characterization of rh-GCase modified by MeO-PEG-NHS (Mw 5000 Da) with different molar ratios of reagent to the enzyme. (A) SDS-PAGE analysis of the pegylated rh-GCases indicated the acceptable effectiveness of the modification reaction, but reacting rh-GCase with longer MeO-PEG-NHS reagents resulted the incomplete pegylation (data not shown). (B) The […]
(also on this page, place not known: rh -GCase MeO -PEG-NHS rh -GCase MeO -PEG-NHS 40 50 60 70 0 20 40 60 80 100 Mono-PEG5k (50 eq) Mono-PEG5k (100 eq) Temperature (oC) Unfolded protein (%)) […]

IC50 (rh-GCase [2]): 5.1 ± 1.1 nM
In-vitro rh-GCase stabilization ΔTm (rh-GCase [3]): 13.2 °C
ΔTm at 100 µM (rh-GCase [3]): 14.2 °C
Molecule: O=C(Cc1ccc(Br)cc1)NC[C@@H]1NC[C@@H](O)[C@H](O)[C@H]1CO [Compound 17]
β-glucosidase activity enhancement in p.Asn370Ser cells ([1]; 100 nM): 1.7 fold

IC50 (rh-GCase [2]): 4 ± 0.7 nM
In-vitro rh-GCase stabilization ΔTm (rh-GCase [3]): 14.2 °C
ΔTm at 100 µM (rh-GCase [3]): 13.2 °C
Molecule: O=C(/C=C/c1cccc(Br)c1)NC[C@@H]1NC[C@@H](O)[C@H](O)[C@H]1CO [Compound 16]
activity enhancement on co-administration with rh-GCase compared to rh-GCase alone [4]: 13 fold
activity enhancement on co-administration with rh-GCase compared to rh-GCase alone [5]: 9.1 fold
β-glucosidase activity enhancement in p.Asn370Ser cells ([1]; 10 nM): 2.5 fold
β-glucosidase activity enhancement in p.Asn370Ser cells ([1]; 25 nM): up to 2.7 fold
influence on cellular α-glucosidase activity [6]: without impairing cellular α-glucosidase activity

IC50 (rh-GCase [2]): 63.6 ± 9.5 nM
Molecule: O=C(NC[C@@H]1NC[C@@H](O)[C@H](O)[C@H]1CO)c1ccc2ccccc2c1 [Compound 23]

IC50 (rh-GCase [2]): 68.3 ± 22 nM
Molecule: O=C(NC[C@@H]1NC[C@@H](O)[C@H](O)[C@H]1CO)c1cccc2c1C(=O)c1ccccc1-2 [Compound 27]

IC50 (rh-GCase [2]): 191 ± 43 nM
Molecule: Cc1ccc(C(=O)NC[C@H]2NC[C@@H](O)[C@H](O)[C@H]2CO)c([N+](=O)[O-])c1 [Compound 18]

IC50 (rh-GCase [2]): 11 ± 0.7 nM
Molecule: Cc1ccc(C(=O)NC[C@@H]2NC[C@@H](O)[C@H](O)[C@H]2CO)c([N+](=O)[O-])c1 [Compound 24]

IC50 (rh-GCase [2]): 30 ± 7.8 nM
ΔTm at 100 µM (rh-GCase [3]): 11.3 °C
Molecule: C/C(=C\c1ccccc1)C(=O)NC[C@@H]1NC[C@@H](O)[C@H](O)[C@H]1CO [Compound 15]
β-glucosidase activity enhancement in p.Asn370Ser cells ([1]; 100 nM): 1.8 fold

IC50 (rh-GCase [2]): 25.9 ± 11.1 nM
Molecule: O=C(NC[C@H]1NC[C@@H](O)[C@H](O)[C@H]1CO)c1cccc2c1C(=O)c1ccccc1-2 [Compound 21]

IC50 (rh-GCase [2]): 200 ± 32 nM
Molecule: COc1ccc(C(=O)NC[C@@H]2NC[C@@H](O)[C@H](O)[C@H]2CO)c(OC)c1 [Compound 26]

IC50 (rh-GCase [2]): 250 ± 49 nM
Molecule: O=C(Cc1ccc(Br)cc1)NC[C@H]1NC[C@@H](O)[C@H](O)[C@H]1CO [Compound 22]

IC50 (rh-GCase [2]): 45.6 ± 13.7 nM
Molecule: COc1ccc(C(=O)NC[C@H]2NC[C@@H](O)[C@H](O)[C@H]2CO)c(OC)c1 [Compound 20]

IC50 (rh-GCase [2]): 26.4 ± 8 nM
Molecule: COc1ccc(Br)cc1/C=C/C(=O)NC[C@@H]1NC[C@@H](O)[C@H](O)[C@H]1CO [Compound 25]

IC50 (rh-GCase [2]): 3.7 ± 0.4 nM
fold greater inhibitory potency than IFG (rh-GCase [2]; rh-GCase IC50 compared with IFG): 50 fold
Molecule: O=C(NCC1NCC(O)C(O)C1CO)c1ccc2ccccc2c1 (stereo not shown) [S1]

ΔTm at 100 µM (rh-GCase [3]): 9.6 °C
Molecule: OC[C@H]1CNC[C@@H](O)[C@@H]1O [IFG, isofagomine]
activity enhancement on co-administration with rh-GCase compared to rh-GCase alone [4]: 7 fold
activity enhancement on co-administration with rh-GCase compared to rh-GCase alone [5]: 6 fold
β-glucosidase activity enhancement in p.Asn370Ser cells ([1]; 1000 nM): 1.7 fold

IC50 (rh-GCase [2]): 7.7 ± 1.5 nM
Molecule: COc1ccc(Br)cc1/C=C/C(=O)NC[C@H]1NC[C@@H](O)[C@H](O)[C@H]1CO [Compound 19]

B1: rh-GCase: recombinant human GCase used for enzyme replacement therapy (protein, UniProt P04062 40-536, looked up)
Lysosomal acid …: ARPCIPKSFGYSSVVCVCNATYCDSFDPPTFPALGTFSRYESTRSGRRMELSMGPIQANHTGTGLLLTLQPEQKFQKVKGFGGAMTDAAALNILALSPPAQNLLLKSYFSEEGIGYNIIRVPMASCDFSIRTYTYADTPDDFQLHNFSLPEEDTKLKIPLIHRALQLAQRPVSLLASPWTSPTWLKTNGAVNGKGSLKGQPGDIYHQTWARYFVKFLDAYAEHKLQFWAVTAENEPSAGLLSGYPFQCLGFTPEHQRDFIARDLGPTLANSTHHNVRLLMLDDQRLLLPHWAKVVLTDPEAAKYVHGIAVHWYLDFLAPAKATLGETHRLFPNTMLFASEACVGSKFWEQSVRLGSWDRGMQYSHSIITNLLYHVVGWTDWNLALNPEGGPNWVRNFVDSPIIVDITKDTFYKQPMFYHLGHFSKFIPEGSQRVGLVASQKNDLDAVALMHPDGSAVVVVLNRSSKDVPLTIKDPAVGFLETISPGYSIHTYLWRRQ
Tm [7]: 49.1 ± 0.1 oC

B2: Mono-PEG5k (50 eq): rh-GCase modified by MeO-PEG-NHS (Mw 5000 Da), 50 eq of reagent (conjugate, UniProt P04062 40-536, looked up)
Lysosomal acid …: ARPCIPKSFGYSSVVCVCNATYCDSFDPPTFPALGTFSRYESTRSGRRMELSMGPIQANHTGTGLLLTLQPEQKFQKVKGFGGAMTDAAALNILALSPPAQNLLLKSYFSEEGIGYNIIRVPMASCDFSIRTYTYADTPDDFQLHNFSLPEEDTKLKIPLIHRALQLAQRPVSLLASPWTSPTWLKTNGAVNGKGSLKGQPGDIYHQTWARYFVKFLDAYAEHKLQFWAVTAENEPSAGLLSGYPFQCLGFTPEHQRDFIARDLGPTLANSTHHNVRLLMLDDQRLLLPHWAKVVLTDPEAAKYVHGIAVHWYLDFLAPAKATLGETHRLFPNTMLFASEACVGSKFWEQSVRLGSWDRGMQYSHSIITNLLYHVVGWTDWNLALNPEGGPNWVRNFVDSPIIVDITKDTFYKQPMFYHLGHFSKFIPEGSQRVGLVASQKNDLDAVALMHPDGSAVVVVLNRSSKDVPLTIKDPAVGFLETISPGYSIHTYLWRRQ
modifications: PEG 5 kDa, 50 eq
notes: rh-GCase modified by MeO-PEG-NHS (Mw 5000 Da), 50 eq of reagent
Tm [7]: 51.7 ± 0.3 oC

B3: Mono-PEG5k (100 eq): rh-GCase modified by MeO-PEG-NHS (Mw 5000 Da), 100 eq of reagent (conjugate, UniProt P04062 40-536, looked up)
Lysosomal acid …: ARPCIPKSFGYSSVVCVCNATYCDSFDPPTFPALGTFSRYESTRSGRRMELSMGPIQANHTGTGLLLTLQPEQKFQKVKGFGGAMTDAAALNILALSPPAQNLLLKSYFSEEGIGYNIIRVPMASCDFSIRTYTYADTPDDFQLHNFSLPEEDTKLKIPLIHRALQLAQRPVSLLASPWTSPTWLKTNGAVNGKGSLKGQPGDIYHQTWARYFVKFLDAYAEHKLQFWAVTAENEPSAGLLSGYPFQCLGFTPEHQRDFIARDLGPTLANSTHHNVRLLMLDDQRLLLPHWAKVVLTDPEAAKYVHGIAVHWYLDFLAPAKATLGETHRLFPNTMLFASEACVGSKFWEQSVRLGSWDRGMQYSHSIITNLLYHVVGWTDWNLALNPEGGPNWVRNFVDSPIIVDITKDTFYKQPMFYHLGHFSKFIPEGSQRVGLVASQKNDLDAVALMHPDGSAVVVVLNRSSKDVPLTIKDPAVGFLETISPGYSIHTYLWRRQ
modifications: PEG 5 kDa, 100 eq
notes: rh-GCase modified by MeO-PEG-NHS (Mw 5000 Da), 100 eq of reagent
Tm [7]: 50.3 ± 0.4 oC
